Consider 26 compounds from patent US8802664B2 (Bioproject, priority 2010, dated 2014).

In the first experiment the target is T1, human H4 receptor (Homo sapiens, UniProt Q9H3N8).
T1 construct: expressed in transfected cells
T1 sequence (Q9H3N8 whole entry): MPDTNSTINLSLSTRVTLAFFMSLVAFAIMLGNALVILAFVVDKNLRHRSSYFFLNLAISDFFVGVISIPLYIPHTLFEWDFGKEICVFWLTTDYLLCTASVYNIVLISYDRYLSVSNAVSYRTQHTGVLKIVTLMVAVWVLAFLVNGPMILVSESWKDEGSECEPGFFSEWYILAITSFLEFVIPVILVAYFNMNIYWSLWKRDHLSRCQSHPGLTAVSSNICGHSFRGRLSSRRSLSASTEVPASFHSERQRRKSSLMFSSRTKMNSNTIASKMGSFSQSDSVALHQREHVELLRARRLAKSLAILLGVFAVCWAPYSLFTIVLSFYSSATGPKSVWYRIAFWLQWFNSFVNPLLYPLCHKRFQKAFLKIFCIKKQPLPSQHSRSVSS
As to the kind of experiment: [3H]Histamine binding on membranes of CHO cells stably expressing human H4 receptor.
Conditions: not given
The gist of the method: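 CHO-hH4 membranes 20 μg/well; buffer 50 mM Tris/HCl, 0.5 mM EDTA, pH 7.4; NSB: 10 μM JNJ 7777120 (BP1.2404); GF/B filtration (PEI-presoaked), 3 ice-cold washes; scintillation counting.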
As to `CN1CCC(OC(c2cccc(CCCN)c2)c2nc3ccccc3[nH]2)CC1` (centres unmarked) [Example 303, 3-{3-[(1H-benzimidazol-2-yl)(1-methylpiperidin-4-yloxy)methyl]phenyl}propylamine], the Ki or IC50 activity class is below 300 nM.

Compound `CN1CCC(OC(c2cccc(SCCCCCN)c2)c2nc3ccccc3s2)CC1` (centres unmarked) [Example 305, 5-{3-[benzothiazol-2-yl(1-methylpiperidin-4-yloxy)methyl]phenylsulfanyl}pentylamine] showed a Ki or IC50 activity class below 30 nM. On the same count and under the same terms, as for `CN1CCC(OC(c2cccc(CCc3cn(C)cn3)c2)c2nc3ccccc3s2)CC1` (centres unmarked) [Example 306, 2-[{3-[2-(1-methyl-1H-imidazol-4-yl)ethyl]phenyl}(1-methylpiperidin-4-yloxy)methyl]benzothiazole], the figure is below 300 nM; as for `CN1CCC(OC(c2cccc(C#CCCNC(=N)NC(=O)OC(C)(C)C)c2)c2nc3ccccc3[nH]2)CC1` (centres unmarked) [Example 307, N-tert-butoxycarbonyl-N′-(4-{3-[(1H-benzimidazol-2-yl)(1-methylpiperidin-4-yloxy)methyl]phenyl}but-3-ynyl)guanidine], below 1000 nM. The same measure, in the same setting: the result for `CN1CCC(OC(c2cccc(CCCCNC(=N)N)c2)c2nc3ccccc3[nH]2)CC1` (centres unmarked) [Example 308, N-(4-{3-[(1H-benzimidazol-2-yl)(1-methylpiperidin-4-yloxy)methyl]phenyl}butyl)guanidine] reads below 300 nM; that for `CN1CCC(OC(c2cccc(CCCCNC(=N)NC(=O)OC(C)(C)C)c2)c2nc3ccccc3[nH]2)CC1` (centres unmarked) [Example 309, N-tert-butoxycarbonyl-N′-(4-{3-[(1H-benzimidazol-2-yl)(1-methylpiperidin-4-yloxy)methyl]phenyl}butyl)guanidine], below 300 nM; that for `CN1CCC(OC(c2cccc(OCCCN)c2)c2nc3ccccc3s2)CC1` (centres unmarked) [Example 311, 3-{3-[benzothiazol-2-yl(1-methylpiperidin-4-yloxy)methyl]phenoxy}propylamine], below 300 nM. `CN1CCC(OC(c2cccc(CCCCCN)c2)c2nc3ccccc3[nH]2)CC1` (centres unmarked) [Example 312, 5-{3-[(1H-benzimidazol-2-yl)(1-methylpiperidin-4-yloxy)methyl]phenyl}pentylamine] gave a Ki or IC50 activity class below 300 nM. Same read-out and setting: as for `CN1CCC(OC(c2cccc(CCCNC(=O)OC(C)(C)C)c2)c2nc3ccccc3[nH]2)CC1` (centres unmarked) [Example 313, N-tert-butoxycarbonyl-N′-(3-{3-[(1H-benzimidazol-2-yl)(1-methylpiperidin-4-yloxy)methyl]phenyl}propyl)amine], the figure is below 300 nM; as for `CN1CCC(OC(c2cccc(SCCCN)c2)c2nc3ccccc3s2)CC1` (centres unmarked) [Example 314, 3-{3-[benzothiazol-2-yl(1-methylpiperidin-4-yloxy)methyl]phenylsulfanyl}propylamine], below 30 nM. The same measure, in the same setting: the result for `CN1CCC(OC(c2cccc(OCCCCn3nccn3)c2)c2nc3ccccc3s2)CC1` (centres unmarked) [Example 315, 2-{(1-methylpiperidin-4-yloxy)[3-(4-[1,2,3]triazol-2-yl-butoxy)phenyl]methyl}benzothiazole] reads below 1000 nM.

On to `CN1CCC(OC(c2cccc(OCCCCn3cncn3)c2)c2nc3ccccc3s2)CC1` (centres unmarked) [Example 316, 2-{(1-methylpiperidin-4-yloxy)[3-(4-[1,2,4]triazol-1-yl-butoxy)phenyl]methyl}benzothiazole], for which the Ki or IC50 activity class is below 300 nM. On the same count and under the same terms, the result for `CN1CCC(OC(c2cccc(SCCNC3=NCCN3)c2)c2nc3ccccc3[nH]2)CC1` (centres unmarked) [Example 317, (2-{3-[(1H-benzimidazol-2-yl)(1-methylpiperidin-4-yloxy)methyl]-phenylsulfanyl}ethyl)(4,5-dihydro-1H-imidazol-2-yl)amine] reads below 1000 nM; that for `CN1CCC(OC(c2cccc(C#CCCCCN)c2)c2nc3ccccc3s2)CC1` (centres unmarked) [Example 319, 6-{3-[benzothiazol-2-yl(1-methylpiperidin-4-yloxy)methyl]phenyl}hex-5-ynylamine], below 30 nM; that for `CN1CCC(OC(c2cccc(CCCNC(=N)N)c2)c2nc3ccccc3[nH]2)CC1` (centres unmarked) [Example 320, N-(3-{3-[(1H-benzimidazol-2-yl)(1-methylpiperidin-4-yloxy)methyl]phenyl}propyl)guanidine], below 30 nM.

Turning to `CN1CCC(OC(c2cccc(OCCCCN3CCOCC3)c2)c2nc3ccccc3s2)CC1` (centres unmarked) [Example 322, 2-{(1-methylpiperidin-4-yloxy)[3-(4-morpholin-4-yl-butoxy)phenyl]methyl}benzothiazole], the Ki or IC50 activity class was below 1000 nM. `CN1CCC(OC(c2cccc(N3CCCC3CO)c2)c2nc3ccccc3s2)CC1` (centres unmarked) [Example 323, (1-{3-[benzothiazol-2-yl(1-methylpiperidin-4-yloxy)methyl]phenyl}pyrrolidin-2-yl)methanol] came in with a Ki or IC50 activity class below 1000 nM.

Take `CN1CCC(OC(c2cccc(N3CCCC3CO)c2)c2nc3ccccc3s2)CC1` (centres unmarked) [Example 324, (1-{3-[benzothiazol-2-yl(1-methylpiperidin-4-yloxy)methyl]phenyl}pyrrolidin-2-yl)methanol]: the Ki or IC50 activity class is below 300 nM. Still for that read-out and setting: as for `CN1CCC(OC(c2cccc(CCCCCCN)c2)c2nc3ccccc3s2)CC1` (centres unmarked) [Example 325, 6-{3-[benzothiazol-2-yl(1-methylpiperidin-4-yloxy)methyl]phenyl}hexylamine], the figure is below 30 nM; as for `CN1CCC(OC(c2cccc(SCCCCN)c2)c2nc3ccccc3[nH]2)CC1` (centres unmarked) [Example 326, 4-{3-[(1H-benzimidazol-2-yl)(1-methylpiperidin-4-yloxy)methyl]phenylsulfanyl}butylamine], below 30 nM. `CN1CCC(OC(c2cccc(OCCN3CCN(C(=O)OC(C)(C)C)CC3)c2)c2nc3ccccc3s2)CC1` (centres unmarked) [Example 328, 4-(2-{3-[benzothiazol-2-yl(1-methylpiperidin-4-yloxy)methyl]phenoxy}ethyl)piperazine-1-carboxylic acid tert-butyl ester] displayed a Ki or IC50 activity class below 30 nM. In turn, `CN1CCC(OC(c2cccc(OCCN3CCNCC3)c2)c2nc3ccccc3s2)CC1` (centres unmarked) [Example 330, 2-{(1-methylpiperidin-4-yloxy)[3-(2-piperazin-1-yl-ethoxy)phenyl]methyl}benzothiazole] gave a Ki or IC50 activity class below 300 nM. Regarding `CN1CCC(OC(c2cccc(OCCCCN)c2)c2nc3ccccc3[nH]2)CC1` (centres unmarked) [Example 331, 4-{3-[(1H-benzimidazol-2-yl)(1-methylpiperidin-4-yloxy)methyl]phenoxy}butylamine], the Ki or IC50 activity class was below 300 nM. On the same count and under the same terms, the result for `CN1CCC(OC(c2cccc(OCCCCN3CCOCC3)c2)c2nc3ccccc3[nH]2)CC1` (centres unmarked) [Example 332, 2-{(1-methylpiperidin-4-yloxy)[3-(4-morpholin-4-yl-butoxy)phenyl]methyl}-1H-benzimidazole] reads below 1000 nM. On the same count and under the same terms, the result for `CN1CCC(OC(c2cccc(OCCCCN3CCCCC3)c2)c2nc3ccccc3[nH]2)CC1` (centres unmarked) [Example 333, 2-{(1-methylpiperidin-4-yloxy)[3-(4-piperidin-1-yl-butoxy)phenyl]methyl}-1H-benzimidazole] reads below 300 nM.

The same experiment, now with this note: human H4 receptor; evaluated in the GTPγ[35S] assay or in the [3H]histamine binding assay (not stated which per compound); Ki or IC50 class.
`CN1CCC(OC(c2cccc(CCCNC(=N)N)c2)c2nc3ccccc3[nH]2)CC1` (centres unmarked) [Example 321, N-(3-{3-[(1H-benzimidazol-2-yl)(1-methylpiperidin-4-yloxy)methyl]phenyl}propyl)guanidine] came in with a Ki or IC50 activity class below 30 nM.
